Measured values: PubChem BioAssay (NCI)
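Each compound was tested at five concentrations against cells in 96-well plates for 48 hours. The concentration for full growth arrest is given as TGI.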

Experiments:
Assay in all cases: NCI tumour cell line growth inhibition, 48 h
LOX IMVI melanoma = system: LOX IMVI melanoma
KM20L2 colon = system: KM20L2 colon
EKVX NSCLC = system: EKVX NSCLC
RXF-631 renal = system: RXF-631 renal
SK-MEL-5 melanoma = system: SK-MEL-5 melanoma
DMS 114 small cell lung = system: DMS 114 small cell lung
SK-MEL-28 melanoma = system: SK-MEL-28 melanoma
UO-31 renal = system: UO-31 renal
UACC-257 melanoma = system: UACC-257 melanoma
DMS 273 small cell lung = system: DMS 273 small cell lung
A549 NSCLC = system: A549 NSCLC
SNB-19 CNS = system: SNB-19 CNS
SK-OV-3 ovarian = system: SK-OV-3 ovarian
MALME-3M melanoma = system: MALME-3M melanoma
SF-539 CNS = system: SF-539 CNS
NCI-H23 lung = system: NCI-H23 lung
XF 498 CNS = system: XF 498 CNS
HOP-62 NSCLC = system: HOP-62 NSCLC
SNB-78 CNS = system: SNB-78 CNS
NCI-H226 lung = system: NCI-H226 lung
NCI-H460 lung = system: NCI-H460 lung
HT29 colon = system: HT29 colon
HS 578T breast = system: HS 578T breast
HL-60(TB) leukemia = system: HL-60(TB) leukemia
IGROV1 ovarian = system: IGROV1 ovarian
SR leukemia = system: SR leukemia
SN12C renal = system: SN12C renal
UACC-62 melanoma = system: UACC-62 melanoma
OVCAR-3 ovarian = system: OVCAR-3 ovarian
LXFL 529 NSCLC = system: LXFL 529 NSCLC
MDA-MB-231 breast = system: MDA-MB-231 breast
SNB-75 CNS = system: SNB-75 CNS
OVCAR-8 ovarian = system: OVCAR-8 ovarian
CCRF-CEM leukemia = system: CCRF-CEM leukemia
SK-MEL-2 melanoma = system: SK-MEL-2 melanoma
PC-3 prostate = system: PC-3 prostate
TK-10 renal = system: TK-10 renal
U251 CNS = system: U251 CNS
KM12 colon = system: KM12 colon
NCI-H522 lung = system: NCI-H522 lung
RPMI-8226 leukemia = system: RPMI-8226 leukemia
T-47D breast = system: T-47D breast
OVCAR-5 ovarian = system: OVCAR-5 ovarian
ACHN renal = system: ACHN renal
786-0 renal = system: 786-0 renal
SW-620 colon = system: SW-620 colon
MDA-MB-435 = system: MDA-MB-435
RXF 393 renal = system: RXF 393 renal
SF-268 CNS = system: SF-268 CNS
MDA-N = system: MDA-N
MCF7 breast = system: MCF7 breast
HCT-116 colon = system: HCT-116 colon
DLD-1 colon = system: DLD-1 colon
HOP-92 NSCLC = system: HOP-92 NSCLC
BT-549 breast = system: BT-549 breast
OVCAR-4 ovarian = system: OVCAR-4 ovarian
A498 renal = system: A498 renal
NCI/ADR-RES ovarian = system: NCI/ADR-RES ovarian
K-562 leukemia = system: K-562 leukemia
HOP-18 NSCLC = system: HOP-18 NSCLC
SF-295 CNS = system: SF-295 CNS
HCC-2998 colon = system: HCC-2998 colon
CAKI-1 renal = system: CAKI-1 renal
M19-MEL melanoma = system: M19-MEL melanoma
COLO 205 colon = system: COLO 205 colon
M14 melanoma = system: M14 melanoma
MOLT-4 leukemia = system: MOLT-4 leukemia
DU-145 prostate = system: DU-145 prostate
HCT-15 colon = system: HCT-15 colon

CCCCCCCCCCCCCCCCCC(=O)NCC(COP(=O)([O-])OCC[N+](C)(C)C)OCC (centres undefined)
TGI (LOX IMVI melanoma): 44.6 µM
TGI (KM20L2 colon): 0.71 µM
TGI (EKVX NSCLC): 38.7 µM
TGI (RXF-631 renal): 37.5 µM
TGI (SK-MEL-5 melanoma): 32.2 µM
TGI (DMS 114 small cell lung): 32.9 µM
TGI (SK-MEL-28 melanoma): 32.5 µM
TGI (UO-31 renal): 33.8 µM
TGI (UACC-257 melanoma): 33 µM
TGI (DMS 273 small cell lung): 0.284 µM
TGI (A549 NSCLC): 33.4 µM
TGI (SNB-19 CNS): 0.326 µM
TGI (SK-OV-3 ovarian): 33.7 µM
TGI (MALME-3M melanoma): 36.1 µM
TGI (SF-539 CNS): 31.6 µM
TGI (NCI-H23 lung): 34.6 µM

C[N+]1(C)C/C(=C\C=C\c2ccccc2)C(=O)/C(=C/C=C/c2ccccc2)C1
TGI (XF 498 CNS): 57.4 µM
TGI (HOP-62 NSCLC): 46.3 µM
TGI (LOX IMVI melanoma): 52.1 µM
TGI (SNB-78 CNS): > 100 µM
TGI (NCI-H226 lung): > 72.1 µM
TGI (NCI-H460 lung): 59.1 µM
TGI (HT29 colon): 26.6 µM
TGI (HS 578T breast): > 61.4 µM
TGI (HL-60(TB) leukemia): 4.13 µM
TGI (KM20L2 colon): 33.1 µM
TGI (EKVX NSCLC): > 87.4 µM
TGI (IGROV1 ovarian): 35.8 µM
TGI (SR leukemia): 23.9 µM
TGI (SN12C renal): 62.5 µM
TGI (UACC-62 melanoma): 14.2 µM
TGI (OVCAR-3 ovarian): 42.6 µM
TGI (LXFL 529 NSCLC): 11.6 µM
TGI (MDA-MB-231 breast): 36.1 µM
TGI (SNB-75 CNS): 40.3 µM
TGI (OVCAR-8 ovarian): 53.1 µM
TGI (CCRF-CEM leukemia): 13.7 µM
TGI (SK-MEL-2 melanoma): 64.2 µM
TGI (PC-3 prostate): 98.7 µM
TGI (TK-10 renal): > 67.1 µM
TGI (SK-MEL-5 melanoma): 25.2 µM
TGI (DMS 114 small cell lung): 10.9 µM
TGI (U251 CNS): 19.2 µM
TGI (KM12 colon): 10.3 µM
TGI (NCI-H522 lung): 21.5 µM
TGI (SK-MEL-28 melanoma): 17 µM
TGI (RPMI-8226 leukemia): 10.9 µM
TGI (UO-31 renal): > 100 µM
TGI (T-47D breast): 47.4 µM
TGI (UACC-257 melanoma): 26 µM
TGI (OVCAR-5 ovarian): 54.7 µM
TGI (ACHN renal): > 100 µM
TGI (786-0 renal): 55.3 µM
TGI (SW-620 colon): 41.5 µM
TGI (MDA-MB-435): 20 µM
TGI (RXF 393 renal): > 61.1 µM
TGI (SF-268 CNS): 43.7 µM
TGI (MDA-N): 11.1 µM
TGI (MCF7 breast): 38.4 µM
TGI (HCT-116 colon): 28.9 µM
TGI (DLD-1 colon): 45.5 µM
TGI (HOP-92 NSCLC): 70.3 µM
TGI (BT-549 breast): 8.39 µM
TGI (A549 NSCLC): > 100 µM
TGI (SNB-19 CNS): 27.5 µM
TGI (OVCAR-4 ovarian): > 84.2 µM
TGI (A498 renal): > 94.9 µM
TGI (NCI/ADR-RES ovarian): > 100 µM
TGI (SK-OV-3 ovarian): 98.8 µM
TGI (MALME-3M melanoma): 40.4 µM
TGI (SF-539 CNS): 33.9 µM
TGI (K-562 leukemia): 36 µM
TGI (HOP-18 NSCLC): > 61.1 µM
TGI (SF-295 CNS): 81.7 µM
TGI (HCC-2998 colon): 34.2 µM
TGI (CAKI-1 renal): > 82.3 µM
TGI (M19-MEL melanoma): 31.7 µM
TGI (COLO 205 colon): 11.8 µM
TGI (NCI-H23 lung): 34.4 µM
TGI (M14 melanoma): 39.1 µM
TGI (MOLT-4 leukemia): 16.6 µM
TGI (DU-145 prostate): 37.2 µM
TGI (HCT-15 colon): > 100 µM

CCOC(=O)C1=C(C)C2C3C(=O)OC(=O)C3C1(C)C1C(=O)OC(=O)C21 (centres undefined)
TGI (HOP-62 NSCLC): > 100 µM
TGI (LOX IMVI melanoma): > 100 µM
TGI (SNB-78 CNS): > 100 µM
TGI (NCI-H226 lung): > 100 µM
TGI (NCI-H460 lung): > 100 µM
TGI (HT29 colon): > 100 µM
TGI (HL-60(TB) leukemia): > 100 µM
TGI (KM20L2 colon): > 100 µM
TGI (EKVX NSCLC): > 100 µM
TGI (IGROV1 ovarian): > 100 µM
TGI (SN12C renal): > 100 µM
TGI (UACC-62 melanoma): > 100 µM
TGI (OVCAR-3 ovarian): > 100 µM
TGI (LXFL 529 NSCLC): > 100 µM
TGI (SNB-75 CNS): > 100 µM
TGI (OVCAR-8 ovarian): > 100 µM
TGI (RXF-631 renal): > 100 µM
TGI (CCRF-CEM leukemia): > 100 µM
TGI (SK-MEL-2 melanoma): > 100 µM
TGI (TK-10 renal): > 100 µM
TGI (SK-MEL-5 melanoma): > 100 µM
TGI (DMS 114 small cell lung): > 100 µM
TGI (U251 CNS): > 100 µM
TGI (KM12 colon): > 100 µM
TGI (SK-MEL-28 melanoma): > 100 µM
TGI (RPMI-8226 leukemia): > 100 µM
TGI (UO-31 renal): > 100 µM
TGI (UACC-257 melanoma): > 100 µM
TGI (ACHN renal): > 100 µM
TGI (786-0 renal): > 100 µM
TGI (SW-620 colon): > 100 µM
TGI (RXF 393 renal): > 100 µM
TGI (DMS 273 small cell lung): > 100 µM
TGI (SF-268 CNS): > 100 µM
TGI (HCT-116 colon): > 100 µM
TGI (DLD-1 colon): > 100 µM
TGI (HOP-92 NSCLC): > 100 µM
TGI (A549 NSCLC): > 100 µM
TGI (SNB-19 CNS): > 100 µM
TGI (OVCAR-4 ovarian): > 100 µM
TGI (A498 renal): > 100 µM
TGI (SK-OV-3 ovarian): > 100 µM
TGI (MALME-3M melanoma): > 100 µM
TGI (SF-539 CNS): > 100 µM
TGI (K-562 leukemia): > 100 µM
TGI (SF-295 CNS): > 100 µM
TGI (HCC-2998 colon): > 100 µM
TGI (M19-MEL melanoma): > 100 µM
TGI (COLO 205 colon): > 100 µM
TGI (NCI-H23 lung): > 100 µM
TGI (M14 melanoma): > 100 µM
TGI (MOLT-4 leukemia): > 100 µM
TGI (HCT-15 colon): > 100 µM

N#CCCN(c1ccc(C=Nc2ccc(C(=O)O)cc2)cc1)S(=O)(=O)c1ccccc1
TGI (XF 498 CNS): > 100 µM
TGI (HOP-62 NSCLC): > 100 µM
TGI (LOX IMVI melanoma): > 100 µM
TGI (SNB-78 CNS): > 100 µM
TGI (NCI-H226 lung): > 100 µM
TGI (NCI-H460 lung): > 100 µM
TGI (HT29 colon): > 100 µM
TGI (HL-60(TB) leukemia): > 100 µM
TGI (KM20L2 colon): > 100 µM
TGI (EKVX NSCLC): > 100 µM
TGI (IGROV1 ovarian): > 100 µM
TGI (SR leukemia): > 100 µM
TGI (SN12C renal): > 100 µM
TGI (UACC-62 melanoma): > 100 µM
TGI (OVCAR-3 ovarian): > 100 µM
TGI (LXFL 529 NSCLC): > 100 µM
TGI (SNB-75 CNS): > 100 µM
TGI (OVCAR-8 ovarian): > 100 µM
TGI (CCRF-CEM leukemia): > 100 µM
TGI (SK-MEL-2 melanoma): > 100 µM
TGI (TK-10 renal): > 100 µM
TGI (SK-MEL-5 melanoma): > 100 µM
TGI (DMS 114 small cell lung): > 100 µM
TGI (U251 CNS): > 100 µM
TGI (KM12 colon): > 100 µM
TGI (NCI-H522 lung): > 100 µM
TGI (SK-MEL-28 melanoma): > 100 µM
TGI (RPMI-8226 leukemia): > 100 µM
TGI (UO-31 renal): > 100 µM
TGI (UACC-257 melanoma): > 100 µM
TGI (OVCAR-5 ovarian): > 100 µM
TGI (ACHN renal): > 100 µM
TGI (786-0 renal): > 100 µM
TGI (SW-620 colon): > 100 µM
TGI (RXF 393 renal): > 100 µM
TGI (DMS 273 small cell lung): > 100 µM
TGI (SF-268 CNS): > 100 µM
TGI (HCT-116 colon): > 100 µM
TGI (DLD-1 colon): > 100 µM
TGI (HOP-92 NSCLC): > 100 µM
TGI (A549 NSCLC): > 100 µM
TGI (SNB-19 CNS): > 100 µM
TGI (OVCAR-4 ovarian): > 100 µM
TGI (A498 renal): > 100 µM
TGI (SK-OV-3 ovarian): > 100 µM
TGI (MALME-3M melanoma): > 100 µM
TGI (SF-539 CNS): > 100 µM
TGI (K-562 leukemia): > 100 µM
TGI (HOP-18 NSCLC): > 100 µM
TGI (SF-295 CNS): > 100 µM
TGI (HCC-2998 colon): > 100 µM
TGI (CAKI-1 renal): > 100 µM
TGI (M19-MEL melanoma): > 100 µM
TGI (COLO 205 colon): > 100 µM
TGI (NCI-H23 lung): > 100 µM
TGI (M14 melanoma): > 100 µM
TGI (MOLT-4 leukemia): > 100 µM
TGI (HCT-15 colon): > 100 µM
